Assay [1] concerns the target EGFR bearing the L858R/T790M double mutation (Homo sapiens, UniProt P00533, L858R/T790M). Nature of the assay: Kinase inhibition, EGFR L858R/T790M. Type of assay: biochemical. Conditions: 10 μM ATP; 10 pt curves, 3 μM top concentration (singlicates). As to the method:
(§1) Kinase inhibitory activity of the compounds was measured against human EGFR (native sequence) and against EGFR bearing the L858R mution and the L858R/T790M double mutation (EGFR, L858R, and L858R/T790M, respectively in Table 1). Additional assays can be conducted with EGFR deletion mutants such as delE746-A750 with or without the additional T790M mutation. Assay conditions included 10 pt curves with 3 μM top concentration (singlicates) and 10 μM ATP.

The target in assay [2] is BAF3 EGFR DEL T790M PURO POOL (Homo sapiens, UniProt P00533, DEL746-750/T790M, cells depend on it). Nature of the assay: Cell proliferation (MTT), BAF3 EGFR DEL T790M. Type of assay: cell-based. As to the method:
(§2) We also assessed the antiproliferative activity of compounds of Formula (I) against BaF3 cells expressing the target EGFR mutations or control (i.e., cell lines expressing wildtype EGFR). Assays were conducted using MTT.

In assay [3] the target is EGFR bearing the L858R mution (Homo sapiens, UniProt P00533, L858R). Briefly: Kinase inhibition, EGFR L858R. Type of assay: biochemical. Conditions: 10 μM ATP; 10 pt curves, 3 μM top concentration (singlicates). As to the method:
as §1

A further assay concerns BAF3 PARENTAL
Briefly: Cell proliferation (MTT), BAF3 parental. In kind it is cell-based. The conditions noted are these: Mus musculus. As to the method: as §2

The target in assay [4] is human EGFR (native sequence) (Homo sapiens, UniProt P00533). Nature of the assay: Kinase inhibition, human EGFR (native sequence). Conditions: 10 μM ATP; 10 pt curves, 3 μM top concentration (singlicates). Type of assay: biochemical. As to the method: as §1
For assay [5], the system named is BAF3 EGFR L858R-T790M PURO POOL. Briefly: Cell proliferation (MTT), BAF3 EGFR L858R-T790M. In kind it is cell-based. Conditions: Ba/F3 EGFR. As to the method: as §2

Results on 18 compounds are retold here after US9834518B2, “Compounds for inhibiting cell proliferation in EGFR-driven cancers” (ARIAD Pharmaceuticals, Inc., priority 2011, dated 2017).

Molecules are shown by their SMILES.

The IC50 is the concentration that inhibits the measured activity by half.

Chain of EGFR bearing the L858R/T790M double mutation (P00533 25-1210 T790M/L858R): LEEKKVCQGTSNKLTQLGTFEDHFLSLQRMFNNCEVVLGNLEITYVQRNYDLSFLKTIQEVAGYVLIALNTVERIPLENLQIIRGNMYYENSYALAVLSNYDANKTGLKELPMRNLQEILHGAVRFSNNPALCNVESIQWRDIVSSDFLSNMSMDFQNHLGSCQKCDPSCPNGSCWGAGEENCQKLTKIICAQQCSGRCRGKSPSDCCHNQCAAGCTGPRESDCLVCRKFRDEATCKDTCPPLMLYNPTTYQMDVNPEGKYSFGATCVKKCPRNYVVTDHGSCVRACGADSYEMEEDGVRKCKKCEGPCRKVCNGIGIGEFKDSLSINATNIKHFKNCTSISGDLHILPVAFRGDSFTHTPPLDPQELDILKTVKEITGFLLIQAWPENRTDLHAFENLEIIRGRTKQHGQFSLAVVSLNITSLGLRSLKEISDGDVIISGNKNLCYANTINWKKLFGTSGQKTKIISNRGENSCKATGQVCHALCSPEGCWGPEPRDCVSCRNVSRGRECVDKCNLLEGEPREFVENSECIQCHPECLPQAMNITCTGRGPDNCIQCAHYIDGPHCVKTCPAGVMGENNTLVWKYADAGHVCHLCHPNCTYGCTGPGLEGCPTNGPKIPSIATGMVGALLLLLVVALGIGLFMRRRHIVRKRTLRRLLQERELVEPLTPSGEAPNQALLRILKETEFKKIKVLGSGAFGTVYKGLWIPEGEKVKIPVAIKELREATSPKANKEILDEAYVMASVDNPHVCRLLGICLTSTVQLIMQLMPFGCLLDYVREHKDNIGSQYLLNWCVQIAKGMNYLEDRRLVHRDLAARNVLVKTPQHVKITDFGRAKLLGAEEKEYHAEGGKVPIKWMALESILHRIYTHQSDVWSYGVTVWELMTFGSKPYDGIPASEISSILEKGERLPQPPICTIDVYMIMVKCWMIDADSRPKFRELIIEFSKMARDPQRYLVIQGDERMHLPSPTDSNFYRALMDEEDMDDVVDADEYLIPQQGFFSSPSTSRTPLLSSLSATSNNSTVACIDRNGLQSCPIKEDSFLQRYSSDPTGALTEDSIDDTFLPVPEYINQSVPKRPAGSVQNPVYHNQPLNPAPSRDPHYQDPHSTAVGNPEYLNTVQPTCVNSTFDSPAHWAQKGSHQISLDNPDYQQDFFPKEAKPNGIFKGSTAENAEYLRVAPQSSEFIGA
Chain of EGFR bearing the L858R mution (P00533 25-1210 L858R): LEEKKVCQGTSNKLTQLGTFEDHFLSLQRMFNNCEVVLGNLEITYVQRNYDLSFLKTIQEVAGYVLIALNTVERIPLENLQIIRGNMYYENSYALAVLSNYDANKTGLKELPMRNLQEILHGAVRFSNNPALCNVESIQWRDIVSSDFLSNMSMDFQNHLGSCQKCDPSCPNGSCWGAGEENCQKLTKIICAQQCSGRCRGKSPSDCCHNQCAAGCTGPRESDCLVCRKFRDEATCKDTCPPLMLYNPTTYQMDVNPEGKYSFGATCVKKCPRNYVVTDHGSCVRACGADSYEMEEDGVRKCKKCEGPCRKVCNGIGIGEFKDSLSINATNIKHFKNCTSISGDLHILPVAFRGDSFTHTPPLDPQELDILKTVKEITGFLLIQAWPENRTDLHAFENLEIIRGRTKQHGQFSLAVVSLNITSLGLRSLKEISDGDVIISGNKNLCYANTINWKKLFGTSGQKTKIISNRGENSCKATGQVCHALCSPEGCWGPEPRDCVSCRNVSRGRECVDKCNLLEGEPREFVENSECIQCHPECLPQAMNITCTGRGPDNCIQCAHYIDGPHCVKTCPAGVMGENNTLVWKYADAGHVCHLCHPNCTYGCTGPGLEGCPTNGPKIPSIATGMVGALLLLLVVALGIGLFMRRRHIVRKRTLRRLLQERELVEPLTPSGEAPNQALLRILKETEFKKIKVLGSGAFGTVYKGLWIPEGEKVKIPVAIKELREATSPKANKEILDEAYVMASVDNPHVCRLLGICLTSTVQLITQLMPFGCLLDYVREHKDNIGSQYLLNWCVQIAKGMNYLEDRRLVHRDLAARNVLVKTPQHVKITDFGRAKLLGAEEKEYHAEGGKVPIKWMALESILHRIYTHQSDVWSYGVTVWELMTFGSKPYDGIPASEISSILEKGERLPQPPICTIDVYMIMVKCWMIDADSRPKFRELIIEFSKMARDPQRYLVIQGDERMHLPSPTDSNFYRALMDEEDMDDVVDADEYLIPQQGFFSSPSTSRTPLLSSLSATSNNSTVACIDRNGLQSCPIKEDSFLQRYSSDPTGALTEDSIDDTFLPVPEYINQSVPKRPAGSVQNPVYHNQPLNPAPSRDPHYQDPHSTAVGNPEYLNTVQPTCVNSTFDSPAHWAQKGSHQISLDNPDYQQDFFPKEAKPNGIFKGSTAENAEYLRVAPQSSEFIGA
Chain of BAF3 EGFR DEL T790M PURO POOL (P00533 with tags, fused parts or gaps DEL746-750/T790M): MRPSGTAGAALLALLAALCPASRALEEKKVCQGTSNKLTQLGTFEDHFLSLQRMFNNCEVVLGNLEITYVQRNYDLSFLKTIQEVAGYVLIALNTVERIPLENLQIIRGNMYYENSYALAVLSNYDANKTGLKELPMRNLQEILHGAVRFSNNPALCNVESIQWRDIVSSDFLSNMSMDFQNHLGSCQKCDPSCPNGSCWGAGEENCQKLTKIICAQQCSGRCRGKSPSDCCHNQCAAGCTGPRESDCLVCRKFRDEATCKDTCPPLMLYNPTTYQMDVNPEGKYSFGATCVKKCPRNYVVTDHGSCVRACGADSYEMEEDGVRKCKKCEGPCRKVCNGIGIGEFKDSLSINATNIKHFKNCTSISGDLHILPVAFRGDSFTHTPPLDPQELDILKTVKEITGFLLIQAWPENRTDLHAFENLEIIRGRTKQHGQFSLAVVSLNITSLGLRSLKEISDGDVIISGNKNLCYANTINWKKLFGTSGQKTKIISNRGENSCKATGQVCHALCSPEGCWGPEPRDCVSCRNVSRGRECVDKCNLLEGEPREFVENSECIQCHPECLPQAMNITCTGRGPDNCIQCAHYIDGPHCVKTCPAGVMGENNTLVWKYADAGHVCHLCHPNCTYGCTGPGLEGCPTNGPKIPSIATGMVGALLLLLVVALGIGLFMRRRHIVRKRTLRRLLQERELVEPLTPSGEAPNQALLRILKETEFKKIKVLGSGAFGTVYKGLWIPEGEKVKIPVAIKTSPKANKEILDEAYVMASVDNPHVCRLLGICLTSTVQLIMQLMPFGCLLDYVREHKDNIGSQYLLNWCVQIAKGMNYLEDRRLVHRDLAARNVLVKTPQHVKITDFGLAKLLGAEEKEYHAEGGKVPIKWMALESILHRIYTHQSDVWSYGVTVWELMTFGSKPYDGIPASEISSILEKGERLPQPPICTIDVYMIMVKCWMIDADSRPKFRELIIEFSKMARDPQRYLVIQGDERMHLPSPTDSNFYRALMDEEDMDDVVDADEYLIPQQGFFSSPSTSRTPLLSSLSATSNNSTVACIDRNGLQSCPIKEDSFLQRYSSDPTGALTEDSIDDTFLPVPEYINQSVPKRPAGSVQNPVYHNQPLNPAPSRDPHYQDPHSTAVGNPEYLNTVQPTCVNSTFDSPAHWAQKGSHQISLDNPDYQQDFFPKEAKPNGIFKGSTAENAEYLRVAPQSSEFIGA
Chain of human EGFR (native sequence) (P00533 25-1210): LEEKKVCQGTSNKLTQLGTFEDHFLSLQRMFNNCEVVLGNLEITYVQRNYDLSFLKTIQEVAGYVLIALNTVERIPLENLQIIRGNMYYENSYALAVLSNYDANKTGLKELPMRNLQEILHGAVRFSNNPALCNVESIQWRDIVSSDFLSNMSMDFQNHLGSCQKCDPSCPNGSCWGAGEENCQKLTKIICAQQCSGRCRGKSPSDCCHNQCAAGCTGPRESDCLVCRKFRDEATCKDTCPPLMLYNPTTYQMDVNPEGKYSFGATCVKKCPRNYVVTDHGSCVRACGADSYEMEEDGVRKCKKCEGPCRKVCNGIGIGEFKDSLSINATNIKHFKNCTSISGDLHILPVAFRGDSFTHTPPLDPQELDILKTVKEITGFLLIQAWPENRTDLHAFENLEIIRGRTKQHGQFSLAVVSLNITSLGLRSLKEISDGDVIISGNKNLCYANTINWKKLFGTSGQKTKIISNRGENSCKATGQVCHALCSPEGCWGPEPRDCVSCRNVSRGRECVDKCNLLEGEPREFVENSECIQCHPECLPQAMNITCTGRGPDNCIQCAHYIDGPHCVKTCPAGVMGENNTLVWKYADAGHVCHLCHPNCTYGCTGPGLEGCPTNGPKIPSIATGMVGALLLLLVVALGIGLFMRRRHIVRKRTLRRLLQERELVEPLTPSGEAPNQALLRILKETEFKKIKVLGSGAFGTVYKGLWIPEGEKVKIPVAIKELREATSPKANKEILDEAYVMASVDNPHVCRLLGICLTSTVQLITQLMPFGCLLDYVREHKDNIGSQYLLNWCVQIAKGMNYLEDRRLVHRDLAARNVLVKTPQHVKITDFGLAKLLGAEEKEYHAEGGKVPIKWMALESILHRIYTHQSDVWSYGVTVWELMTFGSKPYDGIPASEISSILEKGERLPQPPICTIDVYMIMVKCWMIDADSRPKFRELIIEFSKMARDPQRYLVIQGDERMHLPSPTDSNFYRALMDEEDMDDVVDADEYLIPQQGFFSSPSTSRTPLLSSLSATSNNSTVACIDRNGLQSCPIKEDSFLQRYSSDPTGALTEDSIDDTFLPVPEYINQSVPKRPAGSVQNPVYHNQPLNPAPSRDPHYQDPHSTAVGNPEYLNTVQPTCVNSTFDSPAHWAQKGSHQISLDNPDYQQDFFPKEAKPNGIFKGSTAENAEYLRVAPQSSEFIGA

`C=CC(=O)N[C@@H]1CCC[C@@H](Nc2ncc(Cl)c(Nc3ccccc3P(C)(C)=O)n2)C1` (racemic) [Example 42, rac-N-((1R,3R)-3-((5-chloro-4-((2-(dimethylphosphoryl)phenyl)amino)pyrimidin-2-yl)amino)cyclohexyl)acrylamide]: the IC50 (in assay [1]; in assay [2]; in assay [3]; with BAF3 PARENTAL; in assay [4]) was at least 250 nM in each case.
Consider `C=CC(=O)Nc1cc(Nc2ncc(Cl)c(Nc3ccccc3P(C)(C)=O)n2)c(OC)cc1O[C@@H](COC)CN(CC)CC` (stereo in doubt) [Example 29, rac-(R)—N-(5-((5-chloro-4-((2-(dimethylphosphoryl)phenyl)amino)pyrimidin-2-yl)amino)-2-((1-(diethylamino)-3-methoxypropan-2-yl)oxy)-4-methoxyphenyl)acrylamide], for which the IC50 in assay [1] is below 51 nM; in assay [5], below 51 nM; in assay [2], below 51 nM; in assay [3] it was below 51 nM; in the assay on BAF3 PARENTAL, at least 250 nM; in assay [4], below 51 nM.
`C=CC(=O)Nc1cc(Nc2ncc(Cl)c(Nc3ccccc3P(C)(C)=O)n2)c(OC)cc1O[C@H](COC)CN(CC)CC` (stereo in doubt) [Example 30, rac-(R)—N-(5-((5-chloro-4-((2-(dimethylphosphoryl)phenyl)amino)pyrimidin-2-yl)amino)-2-((1-(diethylamino)-3-methoxypropan-2-yl)oxy)-4-methoxyphenyl)acrylamide]: the IC50 in assay [1] is below 51 nM; in assay [5], below 51 nM; in assay [2], below 51 nM; in assay [3], below 51 nM; with BAF3 PARENTAL, at least 250 nM; in assay [4] it was below 51 nM.
`C=CC(=O)N[C@H]1CCC[C@@H](Nc2ncc(Cl)c(Nc3ccccc3P(C)(C)=O)n2)C1` (stereo in doubt) [Example 43, N-(3-((5-chloro-4-((2-(dimethylphosphoryl)phenyl)amino)pyrimidin-2-yl)amino)cyclohexyl)acrylamide]: the IC50 (in assay [1]; in assay [2]; in assay [3]; with BAF3 PARENTAL; in assay [4]) was at least 250 nM each time.
For the compound `C=CC(=O)Nc1ccc(OC)c(Nc2ncc(Cl)c(Nc3ccccc3P(C)(C)=O)n2)c1` [Example 1, N-(3-((5-chloro-4-((2-(dimethylphosphoryl)phenyl)amino)pyrimidin-2-yl)amino)-4-methoxyphenyl)acrylamide], the IC50 is below 51 nM in assay [1]; below 51 nM in assay [5]; below 51 nM in assay [2]; below 51 nM in assay [3]; at least 250 nM in the assay on BAF3 PARENTAL; 51 to 100 nM in assay [4].
Consider `COc1ccc(NC(=O)/C=C/CN(C)C)cc1Nc1ncc(Cl)c(Nc2ccccc2P(C)(C)=O)n1` [Example 2, (E)-N-(3-((5-chloro-4-((2-(dimethylphosphoryl)phenyl)amino)pyrimidin-2-yl)amino)-4-methoxyphenyl)-4-(dimethylamino)but-2-enamide], for which the half-inhibitory concentration (IC50) in assay [1] is below 51 nM; in assay [5] it was 51 to 100 nM; in assay [2], below 51 nM; in assay [3], below 51 nM; in the assay with BAF3 PARENTAL it was at least 250 nM; in assay [4], 101 to 250 nM.
On to `COc1ccc(NC(=O)/C=C/CN2CCOCC2)cc1Nc1ncc(Cl)c(Nc2ccccc2P(C)(C)=O)n1` [Example 3, (E)-N-(3-((5-chloro-4-((2-(dimethylphosphoryl)phenyl)amino)pyrimidin-2-yl)amino)-4-methoxyphenyl)-4-morpholinobut-2-enamide], for which the IC50 in assay [1] is 51 to 100 nM; in assay [3] it was below 51 nM; in the assay with BAF3 PARENTAL, at least 250 nM; in assay [4], at least 250 nM.
Turning to `COc1ccc(NC(=O)/C=C/CN2CCN(C)CC2)cc1Nc1ncc(Cl)c(Nc2ccccc2P(C)(C)=O)n1` [Example 4, (E)-N-(3-((5-chloro-4-((2-(dimethylphosphoryl)phenyl)amino)pyrimidin-2-yl)amino)-4-methoxyphenyl)-4-(4-methylpiperazin-1-yl)but-2-enamide], the IC50 in assay [1] was 101 to 250 nM; in assay [2] it was at least 250 nM; in assay [3] it was below 51 nM; in the assay on BAF3 PARENTAL it was at least 250 nM; in assay [4] it was at least 250 nM.
Regarding `C/C=C/C(=O)Nc1ccc(OC)c(Nc2ncc(Cl)c(Nc3ccccc3P(C)(C)=O)n2)c1` [Example 5a, (E)-N-(3-((5-chloro-4-((2-(dimethylphosphoryl)phenyl)amino)pyrimidin-2-yl)amino)-4-methoxyphenyl)but-2-enamide], the IC50 (in assay [1]; in assay [2]; in assay [3]; in the assay on BAF3 PARENTAL) was at least 250 nM each time.
With `COc1ccc(NC(=O)C=C(C)C)cc1Nc1ncc(Cl)c(Nc2ccccc2P(C)(C)=O)n1` [Example 5b, N-(3-((5-chloro-4-((2-(dimethylphosphoryl)phenyl)amino)pyrimidin-2-yl)amino)-4-methoxyphenyl)-3-methylbut-2-enamide], the IC50 (in assay [1]; in assay [2]; in assay [3]; with BAF3 PARENTAL) was at least 250 nM in each case.
For `C=C(C)C(=O)Nc1ccc(OC)c(Nc2ncc(Cl)c(Nc3ccccc3P(C)(C)=O)n2)c1` [Example 5c, N-(3-((5-chloro-4-((2-(dimethylphosphoryl)phenyl)amino)pyrimidin-2-yl)amino)-4-methoxyphenyl)methacrylamide], the IC50 in assay [1] was at least 250 nM; in assay [5], at least 250 nM; in assay [2], 101 to 250 nM; in assay [3], at least 250 nM; with BAF3 PARENTAL, at least 250 nM; in assay [4] it was at least 250 nM.
For `C=CC(=O)Nc1cccc(Nc2ncc(Cl)c(Nc3ccccc3P(C)(C)=O)n2)c1` [Example 5d, N-(3-((5-chloro-4-((2-(dimethylphosphoryl)phenyl)amino)pyrimidin-2-yl)amino)phenyl)acrylamide], the IC50 in assay [1] was below 51 nM; in assay [5], below 51 nM; in assay [2], below 51 nM; in assay [3], below 51 nM; in the assay on BAF3 PARENTAL it was 51 to 100 nM; in assay [4], 101 to 250 nM.
Take `C#CC(=O)Nc1ccc(OC)c(Nc2ncc(Cl)c(Nc3ccccc3P(C)(C)=O)n2)c1` [Example 6a, N-(3-((5-chloro-4-((2-(dimethylphosphoryl)phenyl)amino)pyrimidin-2-yl)amino)-4-methoxyphenyl)propiolamide]: the IC50 in assay [1] was below 51 nM; in assay [2] it was at least 250 nM; in assay [3], below 51 nM; with BAF3 PARENTAL it was at least 250 nM; in assay [4], below 51 nM.
For `CC#CC(=O)Nc1ccc(OC)c(Nc2ncc(Cl)c(Nc3ccccc3P(C)(C)=O)n2)c1` [Example 6b, N-(3-((5-chloro-4-((2-(dimethylphosphoryl)phenyl)amino)pyrimidin-2-yl)amino)-4-methoxyphenyl)but-2-ynamide], the IC50 in assay [1] is at least 250 nM; in assay [5], 51 to 100 nM; in assay [2] it was below 51 nM; in assay [3], 51 to 100 nM; in the assay with BAF3 PARENTAL it was at least 250 nM; in assay [4], at least 250 nM.
Take `C=CS(=O)(=O)Nc1ccc(OC)c(Nc2ncc(Cl)c(Nc3ccccc3P(C)(C)=O)n2)c1` [Example 7, N-(3-((5-chloro-4-((2-(dimethylphosphoryl)phenyl)amino)pyrimidin-2-yl)amino)-4-methoxyphenyl)ethenesulfonamide]: the IC50 in assay [1] is below 51 nM; in assay [3] it was below 51 nM; in the assay on BAF3 PARENTAL it was at least 250 nM; in assay [4], below 51 nM.
`C=C(CNc1ccc(OC)c(Nc2ncc(Cl)c(Nc3ccccc3P(C)(C)=O)n2)c1)C(=O)OC` [Example 16, methyl 2-(((3-((5-chloro-4-((2-(dimethylphosphoryl)phenyl)amino)pyrimidin-2-yl)amino)-4-methoxyphenyl)amino)methyl)acrylate]: the IC50 in assay [1] was 101 to 250 nM; in assay [3], below 51 nM; with BAF3 PARENTAL it was at least 250 nM; in assay [4], at least 250 nM.
For the compound `C=CC(=O)Nc1ccc(OC)c(Nc2nc(Nc3ccccc3P(C)(C)=O)c3c(F)c[nH]c3n2)c1` [Example 23, N-(3-((4-((2-(dimethylphosphoryl)phenyl)amino)-5-fluoro-7H-pyrrolo[2,3-d]pyrimidin-2-yl)amino)-4-methoxyphenyl)acrylamide], the IC50 in assay [1] is 101 to 250 nM; in assay [2] it was at least 250 nM; in assay [3], at least 250 nM; in the assay with BAF3 PARENTAL, at least 250 nM; in assay [4], at least 250 nM.
On to `C=CC(=O)Nc1ccc(Nc2ncc(Cl)c(Nc3ccccc3P(C)(C)=O)n2)c(OC)c1` [Example 45, N-(4-((5-chloro-4-((2-(dimethylphosphoryl)phenyl)amino)pyrimidin-2-yl)amino)-3-methoxyphenyl)acrylamide], for which the IC50 was at least 250 nM in assay [1]; at least 250 nM in assay [2]; 101 to 250 nM in assay [3]; at least 250 nM with BAF3 PARENTAL; at least 250 nM in assay [4].
